The results in this text go back to article PMC5218480 (PLoS ONE, 2017).

This experiment concerns MV-4-11 cells. Nature of the experiment: Gene expression microarray analysis (Affymetrix PrimeView) and GSEA. In kind it is cell-based, human. Particulars: ProbeSet 11728879_at; LIST B. Further details: RFU PODN (11730768_x_at) / Fold change /veh PODN (11730768_x_at) / RFU LINC00158 (11744669_a_at) / Fold change /veh LINC00158 (11744669_a_at) / RFU DUSP10 (11751237_a_at) / Fold change /veh DUSP10 (11751237_a_at) / RFU ID3 (11757404_x_at) / Fold change /veh ID3 (11757404_x_at) / RFU PLEKHG5 (11737974_s_at) / Fold change /veh PLEKHG5 (11737974_s_at) / RFU LRRC4B (11730491_at) / Fold change /veh LRRC4B (11730491_at) / RFU GIMAP4 (11747438_a_at) / Fold change /veh GIMAP4 (11747438_a_at) / RFU KRT8 (11758183_x_at) / Fold change /veh KRT8 (11758183_x_at) / RFU CNN1 (11734310_a_at) / Fold change /veh CNN1 (11734310_a_at) / RFU VPS37D (11726825_at) / Fold change /veh VPS37D (11726825_at) / RFU C10orf10 (11716522_x_at) / Fold change /veh C10orf10 (11716522_x_at) / RFU KIR2DL2 /// KIR2DL4 /// KIR2DL5A /// KIR2DL5B /// KIR2DS1 /// KIR2DS2 /// KIR2DS3 /// KIR2DS4 /// KIR3DL3 /// KIR3DL3 /// KIR3DS1 (11738374_at) / Fold change /veh KIR2DL2 /// KIR2DL4 /// KIR2DL5A /// KIR2DL5B /// KIR2DS1 /// KIR2DS2 /// KIR2DS3 /// KIR2DS4 /// KIR3DL3 /// KIR3DL3 /// KIR3DS1 (11738374_at) / RFU C1QL1 (11718748_at) / Fold change /veh C1QL1 (11718748_at) / RFU TMPRSS4 (11747572_a_at) / Fold change /veh TMPRSS4 (11747572_a_at) / RFU HAMP (11756126_x_at) / Fold change /veh HAMP (11756126_x_at) / RFU RNFT2 (11725882_a_at) / Fold change /veh RNFT2 (11725882_a_at) / RFU NR4A2 (11747474_a_at) / Fold change /veh NR4A2 (11747474_a_at) / RFU ABCC12 (11746883_a_at) / Fold change /veh ABCC12 (11746883_a_at) / RFU TMEM136 (11760407_x_at) / Fold change /veh TMEM136 (11760407_x_at) / RFU CLDN22 /// WWC2 (11732394_at) / Fold change /veh CLDN22 /// WWC2 (11732394_at) / RFU HLA-DPB1 (11760878_x_at) / Fold change /veh HLA-DPB1 (11760878_x_at) / RFU SPINT1 (11716480_a_at) / Fold change /veh SPINT1 (11716480_a_at) / RFU GAP43 (11754022_s_at) / Fold change /veh GAP43 (11754022_s_at) / RFU A4GNT (11735810_at) / Fold change /veh A4GNT (11735810_at) / RFU PRB3 (11715151_x_at) / Fold change /veh PRB3 (11715151_x_at) / RFU TUBB4B (11761932_at) / Fold change /veh TUBB4B (11761932_at) / RFU CAPN14 (11732068_a_at) / Fold change /veh CAPN14 (11732068_a_at) / RFU TMCC2 (11721928_a_at) / Fold change /veh TMCC2 (11721928_a_at) / RFU IRGQ (11745062_a_at) / Fold change /veh IRGQ (11745062_a_at) / RFU FAM174B (11720279_a_at) / Fold change /veh FAM174B (11720279_a_at) / RFU TMPRSS4 (11748680_a_at) / Fold change /veh TMPRSS4 (11748680_a_at) / RFU FAM212B (11763350_a_at) / Fold change /veh FAM212B (11763350_a_at) / RFU PLEKHG5 (11743358_a_at) / Fold change /veh PLEKHG5 (11743358_a_at) / RFU ZSCAN30 (11745921_a_at) / Fold change /veh ZSCAN30 (11745921_a_at) / RFU CMKLR1 (11741424_a_at) / Fold change /veh CMKLR1 (11741424_a_at) / RFU LOC101060620 /// MAPK8IP1 (11723275_at) / Fold change /veh LOC101060620 /// MAPK8IP1 (11723275_at) / RFU SPTSSB (11747773_x_at) / Fold change /veh SPTSSB (11747773_x_at) / RFU PRSS12 (11739890_at) / Fold change /veh PRSS12 (11739890_at) / RFU BIN1 (11741810_x_at) / Fold change /veh BIN1 (11741810_x_at) / RFU WNT11 (11732464_a_at) / Fold change /veh WNT11 (11732464_a_at) / RFU C10orf10 (11716521_a_at) / Fold change /veh C10orf10 (11716521_a_at) / RFU C5orf56 (11738089_at) / Fold change /veh C5orf56 (11738089_at) / RFU CYB561 (11721691_x_at) / Fold change /veh CYB561 (11721691_x_at) / RFU ANKRD19P (11752326_a_at) / Fold change /veh ANKRD19P (11752326_a_at) / RFU OR2T12 /// OR2T33 /// OR2T8 (11738714_s_at) / Fold change /veh OR2T12 /// OR2T33 /// OR2T8 (11738714_s_at) / RFU VCAN (11748164_a_at) / Fold change /veh VCAN (11748164_a_at) / RFU JSRP1 (11732532_at) / Fold change /veh JSRP1 (11732532_at) / RFU KRTAP10-11 (11738290_x_at) / Fold change /veh KRTAP10-11 (11738290_x_at) / RFU MYO3A (11730013_a_at) / Fold change /veh MYO3A (11730013_a_at) / RFU EBF3 (11725865_a_at) / Fold change /veh EBF3 (11725865_a_at) / RFU CAMK2N1 (11719241_x_at) / Fold change /veh CAMK2N1 (11719241_x_at) / RFU C5orf56 (11738088_a_at) / Fold change /veh C5orf56 (11738088_a_at) / RFU OLFML3 (11715873_a_at) / Fold change /veh OLFML3 (11715873_a_at) / RFU LOC100653217 /// NTM (11731650_a_at) / Fold change /veh LOC100653217 /// NTM (11731650_a_at) / RFU MAPK11 (11762145_a_at) / Fold change /veh MAPK11 (11762145_a_at) / RFU FIZ1 (11724087_x_at) / Fold change /veh FIZ1 (11724087_x_at) / RFU OASL (11726364_x_at) / Fold change /veh OASL (11726364_x_at) / RFU SOX15 (11748057_x_at) / Fold change /veh SOX15 (11748057_x_at) / RFU CD79A (11719716_a_at) / Fold change /veh CD79A (11719716_a_at) / RFU HIST1H1D (11736915_at) / Fold change /veh HIST1H1D (11736915_at) / RFU CASKIN2 (11723855_a_at) / Fold change /veh CASKIN2 (11723855_a_at) / RFU LOC730098 (11760151_x_at) / Fold change /veh LOC730098 (11760151_x_at) / RFU OR4N2 (11742367_at) / Fold change /veh OR4N2 (11742367_at) / RFU PRRT2 (11749266_a_at) / Fold change /veh PRRT2 (11749266_a_at) / RFU SNX32 (11753110_a_at) / Fold change /veh SNX32 (11753110_a_at) / RFU CDHR5 (11726645_a_at) / Fold change /veh CDHR5 (11726645_a_at) / RFU RCAN1 (11760418_a_at) / Fold change /veh RCAN1 (11760418_a_at) / RFU FAM167A (11723789_a_at) / Fold change /veh FAM167A (11723789_a_at) / RFU FAM26E (11764081_at) / Fold change /veh FAM26E (11764081_at) / RFU ISYNA1 (11749810_s_at) / Fold change /veh ISYNA1 (11749810_s_at) / RFU ACY1 (11761880_at) / Fold change /veh ACY1 (11761880_at) / RFU 11764098_at / Fold change /veh 11764098_at / RFU SAMD14 (11745864_x_at) / Fold change /veh SAMD14 (11745864_x_at) / RFU NPB (11741838_a_at) / Fold change /veh NPB (11741838_a_at) / RFU TMPRSS6 (11731388_a_at) / Fold change /veh TMPRSS6 (11731388_a_at) / RFU KRTAP10-2 (11738614_at) / Fold change /veh KRTAP10-2 (11738614_at) / RFU ARHGAP8 /// PRR5-ARHGAP8 (11727945_x_at) / Fold change /veh ARHGAP8 /// PRR5-ARHGAP8 (11727945_x_at) / RFU KRTAP5-7 /// NADSYN1 (11734609_at) / Fold change /veh KRTAP5-7 /// NADSYN1 (11734609_at) / RFU RASL12 (11751679_a_at) / Fold change /veh RASL12 (11751679_a_at) / RFU CDKN2B (11736163_a_at) / Fold change /veh CDKN2B (11736163_a_at) / RFU PRF1 (11729649_at) / Fold change /veh PRF1 (11729649_at) / RFU, ZNF638 /// ZNF638-IT1 / Fold change vs veh, ZNF638 /// ZNF638-IT1 / RFU, PANK3 / Fold change vs veh, PANK3 / RFU, SH3YL1 / Fold change vs veh, SH3YL1 / RFU, ZEB2 / Fold change vs veh, ZEB2 / RFU, NRIP1 / Fold change vs veh, NRIP1 / RFU, PTTG1IP / Fold change vs veh, PTTG1IP / RFU, CAPN2 / Fold change vs veh, CAPN2 / RFU, MED14 / Fold change vs veh, MED14 / RFU, SNORA58 / Fold change vs veh, SNORA58 / RFU, C1orf63 / Fold change vs veh, C1orf63 / RFU, LRRFIP1 / Fold change vs veh, LRRFIP1 / RFU, NDUFAF7 / Fold change vs veh, NDUFAF7 / RFU, SLC12A2 / Fold change vs veh, SLC12A2 / RFU, IBTK / Fold change vs veh, IBTK / RFU, ESF1 / Fold change vs veh, ESF1 / Fold change vs veh, TMEM50B / RFU, TAOK1 / Fold change vs veh, TAOK1 / RFU, ACBD3 / Fold change vs veh, ACBD3 / RFU, TMA16 / Fold change vs veh, TMA16 / RFU, RWDD3 / Fold change vs veh, RWDD3 / RFU, BCAT1 / Fold change vs veh, BCAT1 / RFU, EDEM3 / Fold change vs veh, EDEM3 / RFU, TMEM33 / Fold change vs veh, TMEM33 / RFU, WDR75 / Fold change vs veh, WDR75 / RFU, AHCTF1 / Fold change vs veh, AHCTF1 / RFU, TFRC / Fold change vs veh, TFRC / RFU, ZDHHC17 / Fold change vs veh, ZDHHC17 / RFU, NOM1 / Fold change vs veh, NOM1 / RFU, ARL8B / Fold change vs veh, ARL8B / RFU, ZBTB11 / Fold change vs veh, ZBTB11 / RFU, TAMM41 / Fold change vs veh, TAMM41 / RFU, KIAA1704 /// LOC100996395 / Fold change vs veh, KIAA1704 /// LOC100996395 / RFU, ING1 / Fold change vs veh, ING1 / RFU, TRMT61B / Fold change vs veh, TRMT61B / RFU, FUBP3 / Fold change vs veh, FUBP3 / RFU, TP53 / Fold change vs veh, TP53 / RFU, TNKS2 / Fold change vs veh, TNKS2 / RFU, ZFP14 / Fold change vs veh, ZFP14 / RFU, ACTR2 / Fold change vs veh, ACTR2 / RFU, PPP3R1 / Fold change vs veh, PPP3R1 / RFU, PIK3R1 / Fold change vs veh, PIK3R1 / RFU, HNRNPA1 / Fold change vs veh, HNRNPA1 / RFU, RNF170 / Fold change vs veh, RNF170 / RFU, ZNF28 / Fold change vs veh, ZNF28 / RFU, RNGTT / Fold change vs veh, RNGTT / RFU, OGT / Fold change vs veh, OGT / RFU, BRD1 / Fold change vs veh, BRD1 / RFU, MARS / Fold change vs veh, MARS / RFU, ZNF655 / Fold change vs veh, ZNF655 / RFU, FAHD1 / Fold change vs veh, FAHD1 / RFU, BDP1 / Fold change vs veh, BDP1 / RFU, LRRCC1 / Fold change vs veh, LRRCC1 / RFU, ARID1A / Fold change vs veh, ARID1A / RFU, ZNF146 / Fold change vs veh, ZNF146 / RFU, ZNF330 / Fold change vs veh, ZNF330 / RFU, GPN3 / Fold change vs veh, GPN3 / RFU, C9orf123 / Fold change vs veh, C9orf123 / RFU, N4BP2L2 / Fold change vs veh, N4BP2L2 / RFU, ARFIP1 / Fold change vs veh, ARFIP1 / RFU, FAM179B / Fold change vs veh, FAM179B / RFU, BCL10 / Fold change vs veh, BCL10 / RFU, UHRF1BP1L / Fold change vs veh, UHRF1BP1L / RFU, BET1 / Fold change vs veh, BET1 / RFU, CNOT2 / Fold change vs veh, CNOT2 / RFU, ZNF268 / Fold change vs veh, ZNF268 / Fold change vs veh, ZNF507 / RFU, DGCR2 / Fold change vs veh, DGCR2 / RFU, WDSUB1 / Fold change vs veh, WDSUB1 / Fold change vs veh, HSP90B1 /// MIR3652 / RFU, ADSS / Fold change vs veh, ADSS / RFU, GK / Fold change vs veh, GK / RFU, ZNF148 / Fold change vs veh, ZNF148 / RFU, TAF9 / Fold change vs veh, TAF9 / RFU, SLC1A5 / Fold change vs veh, SLC1A5 / RFU, SLMO2 / Fold change vs veh, SLMO2 / RFU, ABCC4 / Fold change vs veh, ABCC4 / RFU, LOC101060439 /// RAP1B / Fold change vs veh, LOC101060439 /// RAP1B / RFU, RFX7 / Fold change vs veh, RFX7 / RFU, GTPBP10 / Fold change vs veh, GTPBP10 / RFU, CNEP1R1 / Fold change vs veh, CNEP1R1 / RFU, BIVM-ERCC5 /// ERCC5 / Fold change vs veh, BIVM-ERCC5 /// ERCC5 / RFU, ILF3 / Fold change vs veh, ILF3 / RFU 11762660_at / Fold change /veh 11762660_at / RFU VCAN (11757783_s_at) / Fold change /veh VCAN (11757783_s_at) / RFU DDX43 (11728927_at) / Fold change /veh DDX43 (11728927_at) / RFU KRT8 (11758188_x_at) / Fold change /veh KRT8 (11758188_x_at) / RFU NKD1 (11759106_at) / Fold change /veh NKD1 (11759106_at) / RFU SRD5A1 (11742802_a_at) / Fold change /veh SRD5A1 (11742802_a_at) / RFU TPSAB1 /// TPSB2 (11721975_s_at) / Fold change /veh TPSAB1 /// TPSB2 (11721975_s_at) / RFU GSTM3 (11746129_a_at) / Fold change /veh GSTM3 (11746129_a_at) / RFU IL23R (11737362_x_at) / Fold change /veh IL23R (11737362_x_at) / RFU TMEM51 (11727254_a_at) / Fold change /veh TMEM51 (11727254_a_at) / RFU PIWIL2 (11732686_x_at) / Fold change /veh PIWIL2 (11732686_x_at) / RFU ORM1 (11744905_x_at) / Fold change /veh ORM1 (11744905_x_at) / RFU CCDC152 (11743942_at) / Fold change /veh CCDC152 (11743942_at) / RFU ECM1 (11717891_a_at) / Fold change /veh ECM1 (11717891_a_at) / RFU IL23R (11748794_a_at) / Fold change /veh IL23R (11748794_a_at) / RFU TNFAIP8L3 (11732012_x_at) / Fold change /veh TNFAIP8L3 (11732012_x_at) / RFU MBOAT4 (11741988_at) / Fold change /veh MBOAT4 (11741988_at) / RFU 11764193_at / Fold change /veh 11764193_at / RFU TMEM53 (11763286_at) / Fold change /veh TMEM53 (11763286_at) / RFU MAGEB2 (11727129_at) / Fold change /veh MAGEB2 (11727129_at) / RFU TMEM200A (11744735_a_at) / Fold change /veh TMEM200A (11744735_a_at) / RFU CCDC152 (11751479_a_at) / Fold change /veh CCDC152 (11751479_a_at) / RFU FAM211A (11726209_a_at) / Fold change /veh FAM211A (11726209_a_at) / RFU RGS16 (11746705_a_at) / Fold change /veh RGS16 (11746705_a_at) / RFU VCAN (11755009_s_at) / Fold change /veh VCAN (11755009_s_at) / RFU RHOB (11743442_s_at) / Fold change /veh RHOB (11743442_s_at) / RFU RGS16 (11720943_a_at) / Fold change /veh RGS16 (11720943_a_at) / RFU RGS16 (11720944_at) / Fold change /veh RGS16 (11720944_at) / RFU, VPS4B / Fold change vs veh, VPS4B / RFU, CREB1 / Fold change vs veh, CREB1 / RFU, DNAJC13 / Fold change vs veh, DNAJC13 / RFU, GNAQ / Fold change vs veh, GNAQ / RFU, CDK5R1 / Fold change vs veh, CDK5R1 / RFU, ZRANB3 / Fold change vs veh, ZRANB3 / RFU, CUL4A / Fold change vs veh, CUL4A / RFU, CCNY / Fold change vs veh, CCNY / RFU, UFL1 / Fold change vs veh, UFL1 / RFU, COG3 / Fold change vs veh, COG3 / RFU, DIAPH2 / Fold change vs veh, DIAPH2 / RFU, SKA2 / Fold change vs veh, SKA2 / RFU, AFF3 / Fold change vs veh, AFF3 / RFU, LMF1 / Fold change vs veh, LMF1 / RFU, IPO11 / Fold change vs veh, IPO11 / RFU, DFFB / Fold change vs veh, DFFB / RFU, FOXP1 / Fold change vs veh, FOXP1 / RFU, CARD8 / Fold change vs veh, CARD8 / RFU, STRN3 / Fold change vs veh, STRN3 / RFU, ADK / Fold change vs veh, ADK / RFU, RASSF2 / Fold change vs veh, RASSF2 / RFU, WIPF1 / Fold change vs veh, WIPF1 / RFU, LARP1B / Fold change vs veh, LARP1B / RFU, RASA1 / Fold change vs veh, RASA1 / RFU, RB1 / Fold change vs veh, RB1 / RFU, PPFIA1 / Fold change vs veh, PPFIA1 / RFU, MAT2A / Fold change vs veh, MAT2A / RFU, CCT5 / Fold change vs veh, CCT5 / RFU, WDR92 / Fold change vs veh, WDR92 / RFU, CUX1 / Fold change vs veh, CUX1 / RFU, TTC7A / Fold change vs veh, TTC7A / RFU, TMEM135 / Fold change vs veh, TMEM135 / RFU, DEPTOR / Fold change vs veh, DEPTOR / RFU, CPM / Fold change vs veh, CPM / RFU, DNAJB6 / Fold change vs veh, DNAJB6 / RFU, CACNA2D3 / Fold change vs veh, CACNA2D3 / RFU, DTX4 / Fold change vs veh, DTX4 / RFU, TFCP2 / Fold change vs veh, TFCP2 / RFU, GMCL1 /// GMCL1P1 / Fold change vs veh, GMCL1 /// GMCL1P1 / RFU, AEBP2 / Fold change vs veh, AEBP2 / RFU, SNHG1 /// SNORD22 /// SNORD25 /// SNORD26 /// SNORD27 /// SNORD28 /// SNORD29 /// SNORD31 / Fold change vs veh, SNHG1 /// SNORD22 /// SNORD25 /// SNORD26 /// SNORD27 /// SNORD28 /// SNORD29 /// SNORD31 / Fold change (Aza/veh), C12orf56 (ProbeSet 11735607_a_at) / Fold change (ACY-1035/veh), C12orf56 (ProbeSet 11735607_a_at) / Fold change (Aza/veh), FGFR1OP (ProbeSet 11751329_s_at) / Fold change (ACY-1035/veh), FGFR1OP (ProbeSet 11751329_s_at) / Fold change (Aza/veh), VPS36 (ProbeSet 11739960_a_at) / Fold change (ACY-1035/veh), VPS36 (ProbeSet 11739960_a_at) / RFU SYPL1 (11715823_x_at) / Fold change /veh SYPL1 (11715823_x_at) / RFU IGFBP7 (11715501_s_at) / Fold change /veh IGFBP7 (11715501_s_at) / RFU REEP3 (11722064_at) / Fold change /veh REEP3 (11722064_at) / RFU IGLL1 (11728026_x_at) / Fold change /veh IGLL1 (11728026_x_at): dose or concentration left out as unconfirmed.

Molecules are shown by their SMILES.

Turning to `Nc1ccc(-c2cccs2)cc1NC(=O)c1ccc2c(c1)cc(C1CC1)n2CCN1CCOCC1` [ACY-1035], the “Fold change vs veh, PPP3R1” value turned out to be 0.99.
